Converted amounts (≈) assume the structure as drawn.
How the values were obtained:
[1] = system: S. faecium CT-26; assay: MIC determination (NCCLS broth microdilution); type: cell-based; conditions: 24 hours at 34° C., lowest concentration with >=80% inhibition; for MIC: Enterococcus faecium, CT26
[2] = system: S. faecalis ATCC 29212; assay: MIC determination (NCCLS broth microdilution); type: cell-based; conditions: 24 hours at 34° C., lowest concentration with >=80% inhibition; for MIC: Enterococcus faecalis, ATCC29212
[3] = system: S. epidermidis ATCC 12228; assay: MIC determination (NCCLS broth microdilution); type: cell-based; conditions: 24 hours at 34° C., lowest concentration with >=80% inhibition; for MIC: Staphylococcus epidermidis, ATCC12228
[4] = system: S. pneumoniae ATCC 6301; assay: MIC determination (NCCLS broth microdilution); type: cell-based; conditions: 24 hours at 34° C., lowest concentration with >=80% inhibition; for MIC: Streptococcus pneumoniae, ATCC6301
[5] = system: S. aureus ATCC 29213; assay: MIC determination (NCCLS broth microdilution); type: cell-based; conditions: 24 hours at 34° C., lowest concentration with >=80% inhibition; for MIC: Staphylococcus aureus, ATCC29213
[6] = in vitro; conditions: human
[7] = Cytotoxicity in HCV RNA replicon assay; conditions: human, ET cell line (luc-ubi-neo/ET)
[8] = Cell viability (CellTiter 96) in HepG2 2.15 assay; type: cell-based; conditions: human, HepG2 2.2.15 cells (produce HBV ayw1 strain); read-out: Anti-Hepatitis B Activity TC50
Method: (§1) HepG2 2.15 Antiviral Evaluation Assay—HepG2 2.2.15 cells, which produce HBV ayw1 strain, were plated in 96-well collagencoated microtiter plates at a density of 2.5×10^4/well with DMEM medium supplemented with 2% fetal bovine serum. One day following plating of cells, the wells were washed and the medium was replaced with complete medium containing the test compound diluted in the medium in a half-log series.
(§2) The medium was replaced once with the fresh medium containing the freshly diluted compound three days post the initial addition of the lamivudine, a positive control compound. Cell viability was determined using CellTiter 96® Reagent (Promega, Madison, Wis.) according to the manufacturer's protocol, using a Vmax plate reader (Molecular Devices, Sunnyvale, Calif.). The mixture is metabolized by the mitochondrial enzymes of metabolically active cells to a soluble formazan product, allowing the rapid quantitative analysis of cell numbers. The media was removed and replaced with 100 μl of fresh media and 10 μl of Cell Titer 96. […] Percent cell viability of compound treated wells compared to no compound controls was calculated using an in-house computer program which graphs the percent reduction in viral cytopathic effects and the cell numbers at each drug concentration relative to control values.

[9] = system: HBV ayw1 strain; assay: HepG2 2.15 Antiviral Evaluation Assay; type: cell-based; conditions: Hepatitis B virus; HepG2 2.2.15 cells; read-out: Anti-Hepatitis B Activity IC50
Method: as §1, §2

[10] = system: 17D strain YFV virus; assay: microbe, parasite or virus in culture; type: cell-based, Yellow Fever (YFV); conditions: Yellow fever virus, HeLa, 168 h, read-out: Anti-Yellow Fever Activity IC50

SMILES | MIC [1] | MIC [2] | MIC [3] | MIC [4] | MIC [5] | CC50 at 7 day [6] | CC50 at 72 hr [7] | CC50 [8] | IC50 [9] | IC50 [10] | MIC S. faecium CT-26 [1] | MIC S. faecalis ATCC 29212 [2] | MIC S. epidermidis ATCC 12228 [3] | MIC S. pneumoniae ATCC 6301 [4] | MIC S. aureus ATCC 29213 [5]
CO/N=C(\C(=O)N[C@@H]1C(=O)N2C(C(=O)O)=C(CSc3nc(=O)c(=O)[nH]n3C)CS[C@H]12)c1csc(N)n1 [Ceftriaxone, reference compound] | 64 µg/mL (≈ 115 µM) | 64 µg/mL (≈ 115 µM) | 1 µg/mL (≈ 1.8 µM) | 0.125 µg/mL (≈ 0.225 µM) | 2 µg/mL (≈ 3.61 µM) | – | – | – | – | – | – | – | – | – | –
Cc1onc(-c2ccccc2Cl)c1C(=O)N[C@@H]1C(=O)N2[C@@H]1SC(C)(C)[C@@H]2C(=O)O [Cloxacillin, reference compound] | 64 µg/mL (≈ 147 µM) | 16 µg/mL (≈ 36.7 µM) | 0.25 µg/mL (≈ 0.574 µM) | 0.125 µg/mL (≈ 0.287 µM) | 0.125 µg/mL (≈ 0.287 µM) | – | – | – | – | – | – | – | – | – | –
Fc1ccc2c(c1)COB2c1cccc(Cl)c1 [Compound 11, 1-(3-Chlorophenyl)-5-fluoro-1,3-dihydrobenzo[c][1,2]oxaborole] | 32 µg/mL (≈ 130 µM) | 32 µg/mL (≈ 130 µM) | 1 µg/mL (≈ 4.06 µM) | 8 µg/mL (≈ 32.5 µM) | < 0.125 µg/mL | 4140 nM | 1290 nM | 3200 nM | 2470 nM | 650 nM | – | – | – | – | –
Clc1cccc(B2OCc3ccccc32)c1 [Compound 12, 1-(3-Chlorophenyl)-1,3-dihydrobenzo[c][1,2]oxaborole] | 16 µg/mL (≈ 70 µM) | 16 µg/mL (≈ 70 µM) | 2 µg/mL (≈ 8.75 µM) | 8 µg/mL (≈ 35 µM) | 0.5 µg/mL (≈ 2.19 µM) | – | 12700 nM | – | – | – | – | – | – | – | –
Fc1cccc(B2OCc3cc(Cl)ccc32)c1 [Compound 13, 5-Chloro-1-(3-Fluorophenyl)-1,3-dihydrobenzo[c][1,2]oxaborole] | 8 µg/mL (≈ 32.5 µM) | 16 µg/mL (≈ 64.9 µM) | 0.25 µg/mL (≈ 1.01 µM) | 4 µg/mL (≈ 16.2 µM) | < 0.125 µg/mL | 6220 nM | 370 nM | – | – | 1390 nM | – | – | – | – | –
N#Cc1cccc(B2OCc3ccccc32)c1 [Compound 14, 3-(Benzo[c][1,2]oxaborol-1(3H)-yl)benzonitrile] | 16 µg/mL (≈ 73 µM) | 32 µg/mL (≈ 146 µM) | 2 µg/mL (≈ 9.13 µM) | 2 µg/mL (≈ 9.13 µM) | 0.25 µg/mL (≈ 1.14 µM) | 6530 nM | 1140 nM | – | – | 440 nM | – | – | – | – | –
Fc1ccc2c(c1)B(c1cccc(Cl)c1)OC2 [Compound 15, 1-(3-Chlorophenyl)-6-fluoro-1,3-dihydrobenzo[c][1,2]oxaborole] | 8 µg/mL (≈ 32.5 µM) | 16 µg/mL (≈ 64.9 µM) | 2 µg/mL (≈ 8.11 µM) | 4 µg/mL (≈ 16.2 µM) | 0.5 µg/mL (≈ 2.03 µM) | 6600 nM | 540 nM | – | – | 1190 nM | – | – | – | – | –
CC1(C)OB(c2cccc(Cl)c2)c2ccccc21 [Compound 16, 1-(3-Chlorophenyl)-1,3-dihydro-3,3-dimethylbenzo[c][1,2]oxaborole] | 16 µg/mL (≈ 62.4 µM) | 16 µg/mL (≈ 62.4 µM) | 2 µg/mL (≈ 7.8 µM) | 8 µg/mL (≈ 31.2 µM) | 0.5 µg/mL (≈ 1.95 µM) | – | – | – | – | – | – | – | – | – | –
Clc1ccc(B2OCc3ccccc32)cc1 [Compound 17, 1-(4-Chlorophenyl)-1,3-dihydrobenzo[c][1,2]oxaborole] | 16 µg/mL (≈ 70 µM) | 16 µg/mL (≈ 70 µM) | 2 µg/mL (≈ 8.75 µM) | 4 µg/mL (≈ 17.5 µM) | 2 µg/mL (≈ 8.75 µM) | 6420 nM | 260 nM | – | – | 1560 nM | – | – | – | – | –
N#Cc1ccc(B2OCc3ccccc32)cc1 [Compound 18, 4-(Benzo[c][1,2]oxaborol-1(3H)-yl)benzonitrile] | 32 µg/mL (≈ 146 µM) | 32 µg/mL (≈ 146 µM) | 2 µg/mL (≈ 9.13 µM) | 4 µg/mL (≈ 18.3 µM) | 2 µg/mL (≈ 9.13 µM) | 6600 nM | – | – | – | 740 nM | – | – | – | – | –
N#Cc1ccc(B2OCc3cc(F)ccc32)cc1 [Compound 19, 4(5-Fluorobenzo[c][1,2]oxaborol-1(3H)-yl)benzonitrile] | > 64 µg/mL | > 64 µg/mL | 16 µg/mL (≈ 67.5 µM) | 16 µg/mL (≈ 67.5 µM) | 8 µg/mL (≈ 33.7 µM) | 17100 nM | 270 nM | – | – | – | – | – | – | – | –
N#Cc1cccc(B2OCc3cc(F)ccc32)c1 [Compound 20, 3-(5-Fluorobenzo[c][1,2]oxaborol-1(3H)-yl)benzonitrile] | 64 µg/mL (≈ 270 µM) | 64 µg/mL (≈ 270 µM) | 16 µg/mL (≈ 67.5 µM) | 8 µg/mL (≈ 33.7 µM) | 1 µg/mL (≈ 4.22 µM) | 21000 nM | 5990 nM | – | – | 1620 nM | – | – | – | – | –
N#Cc1cccc(B2OCc3ccc(F)cc32)c1 [Compound 21, 3-(6-Fluorobenzo[c][1,2]oxaborol-1(3H)-yl)benzonitrile] | 64 µg/mL (≈ 270 µM) | 64 µg/mL (≈ 270 µM) | 16 µg/mL (≈ 67.5 µM) | 8 µg/mL (≈ 33.7 µM) | 8 µg/mL (≈ 33.7 µM) | 15800 nM | 690 nM | – | – | 2360 nM | – | – | – | – | –
NCc1ccc(B2OCc3cc(F)ccc32)cc1 [Compound 23] | 16 µg/mL (≈ 66.4 µM) | 16 µg/mL (≈ 66.4 µM) | 8 µg/mL (≈ 33.2 µM) | 8 µg/mL (≈ 33.2 µM) | 2 µg/mL (≈ 8.3 µM) | – | – | – | – | – | – | – | – | – | –
NCc1cccc(B2OCc3cc(F)ccc32)c1 [Compound 24] | 32 µg/mL (≈ 133 µM) | 32 µg/mL (≈ 133 µM) | 8 µg/mL (≈ 33.2 µM) | 16 µg/mL (≈ 66.4 µM) | 4 µg/mL (≈ 16.6 µM) | – | – | – | – | – | – | – | – | – | –
CC[C@H]1OC(=O)[C@H](C)[C@@H](O[C@H]2C[C@@](C)(OC)[C@@H](O)[C@H](C)O2)[C@H](C)[C@@H](O[C@@H]2O[C@H](C)C[C@H](N(C)C)[C@H]2O)[C@](C)(O)C[C@@H](C)C(=O)[C@H](C)[C@@H](O)[C@]1(C)O [Erythromycin, reference compound] | – | 2 µg/mL (≈ 2.73 µM) | 0.5 µg/mL (≈ 0.681 µM) | – | 0.5 µg/mL (≈ 0.681 µM) | – | – | – | – | – | – | – | – | – | –
C[C@@H](O)[C@H]1C(=O)N2C(C(=O)O)=C(SCCN=CN)C[C@H]12 [Imipenem, reference compound] | 64 µg/mL (≈ 214 µM) | 1 µg/mL (≈ 3.34 µM) | 0.125 µg/mL (≈ 0.418 µM) | 0.125 µg/mL (≈ 0.418 µM) | 0.125 µg/mL (≈ 0.418 µM) | – | – | – | – | – | – | – | – | – | –
CC1(C)S[C@@H]2[C@H](NC(=O)Cc3ccccc3)C(=O)N2[C@H]1C(=O)O [Pen G, reference compound] | – | – | – | – | – | – | – | – | – | – | 32 micrograms per ml | 1 micrograms per ml | 16 micrograms per ml | 0.125 micrograms per ml | 0.5 micrograms per ml
Nc1ccn([C@@H]2CS[C@H](CO)O2)c(=O)n1 [lamivudine, reference compound] | – | – | – | – | – | – | – | > 1000 nM | 9.3 nM | – | – | – | – | – | –
